Test results taken from ChEMBL document CHEMBL3861948 (Medchemcomm, 2016).

Molecular target: Mitogen-activated protein kinase 14 (Homo sapiens, UniProt Q16539)
Assay: Inhibition of p38alpha in human THP1 cells assessed as suppression of LPS-induced TNFalpha secretion preincubated for 30 mins followed by LPS challenge measured after 2 hrs
Format: cell-based, THP-1

Sequence of Mitogen-activated protein kinase 14 (Q16539 whole entry): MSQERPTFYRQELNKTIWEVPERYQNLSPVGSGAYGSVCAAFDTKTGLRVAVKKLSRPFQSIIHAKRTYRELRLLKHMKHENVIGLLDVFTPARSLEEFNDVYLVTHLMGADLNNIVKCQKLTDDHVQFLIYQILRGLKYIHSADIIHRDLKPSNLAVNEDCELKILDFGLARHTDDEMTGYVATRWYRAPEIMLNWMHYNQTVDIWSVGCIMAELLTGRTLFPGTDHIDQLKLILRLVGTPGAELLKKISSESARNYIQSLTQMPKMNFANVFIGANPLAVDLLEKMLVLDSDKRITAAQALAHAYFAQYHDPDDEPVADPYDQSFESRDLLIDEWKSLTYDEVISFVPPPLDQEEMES

IC50 [nM]	Compound
46	CNC(=O)[C@H](Cc1cccc(C(F)(F)F)c1)NC(=O)c1ccc(CNC(=O)c2cnn(-c3ccccc3)c2N)cc1
44	NC(=O)[C@H](CCC1CCCCC1)NC(=O)[C@H]1CC[C@H](CNC(=O)c2cnn(-c3ccccc3)c2N)CC1
